Source: patent US20140051679A1, “KINASE INHIBITORS AND METHOD OF TREATING CANCER WITH SAME” (UNIVERISTY HEALTH NETWORKS, priority 2011, published 2014)

Tests used:
human TTK = molecular target: T1, human TTK (Homo sapiens, UniProt P33981); assay: TTK inhibition assay (indirect ELISA); type: biochemical; details: GST-TTK 0.68 nM, 16 μM ATP; read-out: IC50 Ranges TTK
T1 construct: amino terminal GST fusion of full length human TTK; purchased Invitrogen
T1 sequence (P33981 1-857): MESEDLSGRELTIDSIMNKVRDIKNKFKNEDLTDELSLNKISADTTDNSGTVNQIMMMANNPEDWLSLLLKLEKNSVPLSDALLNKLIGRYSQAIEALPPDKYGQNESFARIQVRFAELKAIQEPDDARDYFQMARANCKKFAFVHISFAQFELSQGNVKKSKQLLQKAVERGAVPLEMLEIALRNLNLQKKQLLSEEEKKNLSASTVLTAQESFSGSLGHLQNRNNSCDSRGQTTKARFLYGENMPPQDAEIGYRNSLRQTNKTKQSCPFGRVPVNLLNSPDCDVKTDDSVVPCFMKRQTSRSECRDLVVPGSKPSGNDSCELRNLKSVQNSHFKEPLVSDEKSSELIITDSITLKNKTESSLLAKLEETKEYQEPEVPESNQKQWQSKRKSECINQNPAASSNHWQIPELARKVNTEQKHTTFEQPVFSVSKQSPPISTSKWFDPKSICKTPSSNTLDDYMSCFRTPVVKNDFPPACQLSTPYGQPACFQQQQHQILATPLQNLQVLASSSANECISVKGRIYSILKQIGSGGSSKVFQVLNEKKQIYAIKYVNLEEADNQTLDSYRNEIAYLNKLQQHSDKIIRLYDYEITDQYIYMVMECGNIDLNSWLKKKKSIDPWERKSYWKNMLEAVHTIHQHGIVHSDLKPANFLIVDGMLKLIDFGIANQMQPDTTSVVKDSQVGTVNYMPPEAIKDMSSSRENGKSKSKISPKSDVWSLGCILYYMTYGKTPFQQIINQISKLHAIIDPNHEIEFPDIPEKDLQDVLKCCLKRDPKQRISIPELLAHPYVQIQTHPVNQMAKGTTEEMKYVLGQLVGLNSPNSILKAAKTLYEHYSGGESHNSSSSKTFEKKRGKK

human PLK4 = molecular target: T2, human PLK4 (Homo sapiens, UniProt O00444); assay: PLK4 inhibition assay (indirect ELISA); type: biochemical; details: GST-PLK4 4 nM, 15 μM ATP; read-out: IC50 Ranges PLK4
T2 construct: amino terminal GST fusion of residues 1-391 of human PLK4; made in house; host or cells: E. coli
T2 sequence (O00444 1-391): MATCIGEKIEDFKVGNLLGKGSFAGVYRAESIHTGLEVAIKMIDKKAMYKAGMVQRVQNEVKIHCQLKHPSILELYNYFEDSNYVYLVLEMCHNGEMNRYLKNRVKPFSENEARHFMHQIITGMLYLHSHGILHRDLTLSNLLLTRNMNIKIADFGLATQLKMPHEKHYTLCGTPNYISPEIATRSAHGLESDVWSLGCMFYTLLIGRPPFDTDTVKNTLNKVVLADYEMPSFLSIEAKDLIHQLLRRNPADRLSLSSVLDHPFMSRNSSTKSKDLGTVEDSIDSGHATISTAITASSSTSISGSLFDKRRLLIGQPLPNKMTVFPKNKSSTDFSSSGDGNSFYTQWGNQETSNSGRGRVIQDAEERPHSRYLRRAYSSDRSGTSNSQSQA
Method in brief: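 Dephosphorylated GST-tagged human PLK4 (residues 1-391, E. coli), 4 nM, preincubated 15 min with compound, then reacted 30 min with 15 μM ATP on MBP-coated plates (50 mM HEPES pH 7.5, 10 mM MgCl2, 0.01% Brij 35). Phospho-MBP detected by antibody ELISA at 450 nm. Tested at 10 μM or 10-point titrations; IC50 from 4-parameter logistic fit.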

Aurora B = molecular target: T3, Aurora B (Homo sapiens, UniProt Q96GD4); assay: Aurora B inhibition assay (Z-Lyte); type: biochemical; details: 28 nM Aurora B, 128 μM ATP; read-out: IC50 Ranges Aurora B
T3 construct: purchased Invitrogen PV3970
T3 sequence (Q96GD4 whole entry): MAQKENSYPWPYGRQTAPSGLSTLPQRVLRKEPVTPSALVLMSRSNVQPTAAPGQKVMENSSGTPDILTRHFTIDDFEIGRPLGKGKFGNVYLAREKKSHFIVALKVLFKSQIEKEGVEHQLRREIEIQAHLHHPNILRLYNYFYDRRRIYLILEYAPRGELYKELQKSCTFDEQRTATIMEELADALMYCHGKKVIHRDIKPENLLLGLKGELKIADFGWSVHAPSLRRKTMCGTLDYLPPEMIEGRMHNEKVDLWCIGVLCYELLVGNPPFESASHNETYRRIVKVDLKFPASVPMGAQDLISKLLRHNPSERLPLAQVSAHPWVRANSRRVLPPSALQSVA
Experimental: Aurora B inhibition was determined using the Z-Lyte assay kit from Invitrogen. The assay was performed using the recommended manufacturer's instructions with 128 μM ATP and 28 nM Aurora B (Invitrogen cat #PV3970). The % inhibition values were determined according to the manufacturer's directions and IC50 values were obtained using a non-linear 4 point logistic curve fit (XLfit4, IDBS)

[1] = system: MDA-MB-231 breast cancer cells; assay: Cell growth inhibition, Sulforhodamine B assay, MDA-MB-231; type: cell-based; details: Homo sapiens, 120 h, 5 days culture, SRB assay, read-out: Cell Line GI50 Range MDA-MB-231
[2] = system: MDA-MB-468 breast cancer cells; assay: Cell growth inhibition, Sulforhodamine B assay, MDA-MB-468; type: cell-based; details: Homo sapiens, 120 h, 5 days culture, SRB assay, read-out: Cell Line GI50 Range MDA-MB-468
Experimental: (§1) Breast cancer cells (MDA-MB-231, MDA-MB-468), colon cancer cells (HCT116, HT29) and ovarian cancer cells (PA-1, OVCAR-3) were seeded (1000 to 4000 in 80 μl per well depending on the cell growth rate) into 96 well plates 24 hours before compound overlay. Compounds were prepared as 10 mM stock solutions in 100% DMSO which were diluted with DMEM (Dulbecco's Modified Eagle's Medium) cell growth Medium (Invitrogen, Burlington, ON, Canada) containing 10% FBS (Fetal Bovine Serum) to concentrations ranging from 50 nM to 250 μM. Aliquots (20 μl) from each concentration were overlaid to 80 μl of the pre-seeded cells in the 96 well plates to make final concentrations of 10 nM to 50 μM. The cells were cultured for 5 days before the Sulforhodamine B assay (SRB) was performed to determine the compound's cell growth inhibition activity.
(§2) Sulforhodamine B (purchased from Sigma, Oakville, ON, Canada) is a water-soluble dye that binds to the basic amino acids of the cellular proteins. Thus, colorimetric measurement of the bound dye provides an estimate of the total protein mass that is related to the cell number. the cells are fixed in situ by gently aspirating off the culture media and adding 50 μl ice cold 10% Trichloroacetic Acid (TCA) per well and incubate at 4° C. for 30-60 min, The plates are washed with water five times and allowed to air dry for 5 min. Addition of 50 μl 0.4% (w/v) SRB solution in 1% (v/v) acetic acid to each well and incubatation for 30 min at RT completes the staining reaction. Following staining, plates are washed four times with 1% acetic acid to remove unbound dye and then allowed to air dry for 5 min. The stain is solubilized with 100 μl of 10 mM Tris pH 10.5 per well. Absorbance is read at 570 nm.
(§3) The percentage (%) of relative growth inhibition was calculated by comparing to DMSO treated only cells (100%). […] The GI50 was calculated using GraphPad PRISM software (GraphPad Software, Inc., San Diego, Calif., USA).

[3] = system: HCT116 colon cancer cells; assay: Cell growth inhibition, Sulforhodamine B assay, HCT116; type: cell-based; details: Homo sapiens, HCT-116, 120 h, 5 days culture, SRB assay, read-out: Cell Line GI50 Range HCT116
Experimental: as §1, §2, §3

HT29 colon cancer cells = assay: Cell growth inhibition, Sulforhodamine B assay, HT29; type: cell-based; details: Homo sapiens, HT-29, 120 h, 5 days culture, SRB assay, read-out: Cell Line GI50 Range HT29
[4] = system: PA-1 ovarian cancer cells; assay: Cell growth inhibition, Sulforhodamine B assay, PA-1; type: cell-based; details: 120 h, 5 days culture, SRB assay, read-out: Cell Line GI50 Range PA-1
[5] = system: OVCAR-3 ovarian cancer cells; assay: Cell growth inhibition, Sulforhodamine B assay, OVCAR-3; type: cell-based; details: Homo sapiens, 120 h, 5 days culture, SRB assay, read-out: Cell Line GI50 Range OVCAR-3
Experimental: as §1, §2, §3

Structure (SMILES)	IC50 (human TTK) [µM]	IC50 (human PLK4) [µM]	IC50 (Aurora B) [µM]	GI50 [1] [µM]	GI50 [2] [µM]	GI50 [3] [µM]	GI50 (HT29 colon cancer cells) [µM]	GI50 [4] [µM]	GI50 [5] [µM]
CC(C)(O)C1CCN(c2ccc(-c3n[nH]c4ccc(C(=O)NC(c5ccccc5)C5CC5)cc34)cc2)CC1 (stereo not drawn) [Example A112, N-(cyclopropyl(phenyl)methyl)-3-(4-(4-(2-hydroxypropan-2-yl)piperidin-1-yl)phenyl)-1H-indazole-5-carboxamide]	≤ 5	≤ 5	≤ 5	≤ 5	≤ 5	≤ 5	≤ 5	≤ 5	≤ 5
CN1CCC(Oc2ccc(-c3n[nH]c4ccc(C(=O)NC(c5ccccc5)C5CCCC5)cc34)cc2)CC1 (stereo not drawn) [Example A159, N-(cyclopentyl(phenyl)methyl)-3-(4-((1-methylpiperidin-4-yl)oxy)phenyl)-1H-indazole-5-carboxamide]	≤ 5	≤ 5	≤ 5	≤ 5	≤ 5	≤ 5	≤ 5	≤ 5	≤ 5
CCC(NC(=O)c1ccc2[nH]nc(-c3ccc(OC4CCN(CCOC)CC4)cc3)c2c1)c1ccccc1 (stereo not drawn) [Example A153, 3-(4-((1-(2-methoxyethyl)piperidin-4-yl)oxy)phenyl)-N-(1-phenylpropyl)-1H-indazole-5-carboxamide]	≤ 5	≤ 5	≤ 5	≤ 5	≤ 5	≤ 5	≤ 5	≤ 5	≤ 5
CN1CCC(Oc2ccc(-c3n[nH]c4ccc(NC(=O)C5CCCc6ccccc65)cc34)cc2)CC1 (stereo not drawn) [Example A18, N-(3-(4-((1-methylpiperidin-4-yl)oxy)phenyl)-1H-indazol-5-yl)-1,2,3,4-tetrahydronaphthalene-1-carboxamide]	≤ 5	≤ 5	≤ 5	≤ 5	≤ 5	≤ 5	≤ 5	≤ 5	≤ 5
COCCN1CCC(Oc2ccc(-c3n[nH]c4ccc(C(=O)NC(c5ccccc5)C5CCCC5)cc34)cc2)CC1 (stereo not drawn) [Example A161, N-(cyclopentyl(phenyl)methyl)-3-(4-((1-(2-methoxyethyl)piperidin-4-yl)oxy)phenyl)-1H-indazole-5-carboxamide]	≤ 5	≤ 5	≤ 5	≤ 5	≤ 5	≤ 5	≤ 5	≤ 5	≤ 5
CN1CCC(Oc2ccc(-c3n[nH]c4ccc(C(=O)N[C@@H](CCO)c5ccccc5)cc34)cc2)CC1 [Example A125, (S)—N-(3-hydroxy-1-phenylpropyl)-3-(4-((1-methylpiperidin-4-yl)oxy)phenyl)-1H-indazole-5-carboxamide]	≤ 5	≤ 5	≤ 5	≤ 5	≤ 5	≤ 5	≤ 5	≤ 5	≤ 5
O=C(NC(c1ccccc1)C1CC1)c1ccc2[nH]nc(-c3ccc(OC4CCN(CCO)CC4)cc3)c2c1 (stereo not drawn) [Example A104, N-(cyclopropyl(phenyl)methyl)-3-(4-((1-(2-hydroxyethyl)piperidin-4-yl)oxy)phenyl)-1H-indazole-5-carboxamide]	≤ 5	≤ 5	≤ 5	≤ 5	≤ 5	≤ 5	≤ 5	≤ 5	≤ 5
O=CN1CCC(Oc2ccc(-c3n[nH]c4ccc(C(=O)NC(c5ccccc5)C5CC5)cc34)cc2)CC1 (stereo not drawn) [Example A126, N-(cyclopropyl(phenyl)methyl)-3-(4-((1-formylpiperidin-4-yl)oxy)phenyl)-1H-indazole-5-carboxamide]	≤ 5	≤ 5	≤ 5	≤ 5	≤ 5	≤ 5	≤ 5	≤ 5	≤ 5
CCc1cccc(CC)c1NC(=O)Nc1ccc2[nH]nc(-c3ccc(C4CN(C)CCO4)cc3)c2c1 (stereo not drawn) [Example A124, 1-(2,6-diethylphenyl)-3-(3-(4-(4-methylmorpholin-2-yl)phenyl)-1H-indazol-5-yl)urea]	≤ 5	≤ 5	≤ 5	≤ 5	≤ 5	≤ 5	≤ 5	≤ 5	20 to 50
CN(C)C(=O)CN1CCC(Oc2ccc(-c3n[nH]c4ccc(C(=O)NC(c5ccccc5)C5CC5)cc34)cc2)CC1 (stereo not drawn) [Example A158, N-(cyclopropyl(phenyl)methyl)-3-(4-((1-(2-(dimethylamino)-2-oxoethyl)piperidin-4-yl)oxy)phenyl)-1H-indazole-5-carboxamide]	≤ 5	≤ 5	≤ 5	≤ 5	≤ 5	≤ 5	≤ 5	≤ 5	≤ 5
COCCN1CCC(Oc2ccc(-c3n[nH]c4ccc(C(=O)NC(c5ccsc5)C5CCCC5)cc34)cc2)CC1 (stereo not drawn) [Example A155, N-(cyclopentyl(thiophen-3-yl)methyl)-3-(4-((1-(2-methoxyethyl)piperidin-4-yl)oxy)phenyl)-1H-indazole-5-carboxamide]	≤ 5	≤ 5	≤ 5	≤ 5	≤ 5	≤ 5	≤ 5	≤ 5	≤ 5
Cc1ccccc1CC(=O)Nc1ccc2[nH]nc(-c3ccc(OC4CCN(C)CC4)cc3)c2c1 [Example A92, N-(3-(4-(1-Methylpiperidin-4-yloxy)phenyl)-1H-indazol-5-yl)-2-o-tolylacetamide]	≤ 5	≤ 5	≤ 5	≤ 5	≤ 5	≤ 5	≤ 5	≤ 5	≤ 5
